Measurements taken from US20260021147A1, “COMPOSITIONS AND METHODS FOR TREATING INFLAMMATORY DISEASE” (The Regents of the University of Michigan, priority 2022, published 2026).

How the values were obtained:
[1] = system: allogeneic mice (B6D2F1 recipients of B6 donor cells); assay: Murine GvHD model (allo-HSCT): survival and GvHD histology; format: in vivo; details: for severity of colonic GvHD: antibiotic in drinking water, colon collected day 20, vs control allogeneic mice
Experimental: In a murine model with a mucin-deficient mutate strain of BT, piperacillin/tazobactam was given at a concentration of 3.2 g/L in combination with vancomycin and metronidazole dosed 1.5 mg daily by oral gavage from days −16 to −12 relative to transplant.
D-(+)-xylose (X3877, Sigma-Aldrich) or D-(+)-glucose (G8270, Sigma-Aldrich) was dissolved in phosphate buffer pH 8.0 with meropenem or in water without meropenem and given at a concentration of 0.5% from days 13 to 28 after allo-HSCT.
Mice were transplanted as previously described (Hayase et al., 2017).
(§1) Pathology scores were quantified by a blinded pathologist. […] Sections were imaged using an Aperio AT2.

[2] = system: BT (MDA-JAX BT001) PUL transcripts; assay: RNA sequencing of stool: PUL expression in BT; format: in vivo, Bacteroides thetaiotaomicron; details: supplementation in meropenem-treated allogeneic mice
Experimental: Approximately 30 mg of stool was freshly collected in 700 μL of ice cold Qiazol containing 200 μL of 0.1 mm diameter Zirconia Silica beads (11079101z, BioSpec). Samples were bead beaten twice for 2 min with a 30 second interval recovery. Samples were then centrifuged at 12,000 g for 1 min and the supernatant was collected for RNA isolation using the RNeasy mini kit (74104, Qiagen). RNA was treated on column with DNase I (79254, Qiagen) to eliminate contaminating genomic DNA. RNA quantity and quality was determined using an Agilent 4200 TapeStation system (Agilent). 250 ng of total RNA from mouse stools was used to construct libraries using the Nugen Ovation Complete Prokaryotic RNA-Seq Systems (NuGen) or the Universal Prokaryotic RNA-Seq Library Preparation Kit (9367-32, Tecan) with Unique Dual Indexes (S02480-FG, Tecan), following the manufacturer's protocol. The cDNA libraries were sequenced on the Illumina MiSeq or NovaSeq 6000 system to produce either 1×300 bp single-end reads or 2×150 bp paired-end reads. […] The total reads of mouse stool samples were 950923±113406 (mean ±standard deviation) in FIG. 6A and 137623366±38865363 in FIG. 6G-H and 12G. […] Aligned mRNA expression changes were calculated using the Mann-Whitney U test in R software version 3.6.0 via RStudio version 1.2.1335. […]

[3] = system: mouse- and human-derived BT; assay: Bacterial culture of BT with or without monosaccharide; format: cell-based, Bacteroides thetaiotaomicron; details: carbohydrate-poor media, in vitro
Experimental: Mouse-derived BT (MDA-JAX BT001), Enterococcus faecalis (MDA-JAX EF001) and Clostridium disporicum (MDA-JAX CD001), Clostridium saudiense (MDA-JAX CS001), and Lachnospiraceae unclassified (MDA-JAX LS001) were isolated and cultured from mouse stool samples suspended in 1 ml of chilled 20% anaerobic glycerol in a Whitley anaerobic chamber (10% H2, 5% CO2 and 85% N2). Human-derived BT (ATCC 29148) was purchased from ATCC. Bacterial number was quantified using a Nexcelom Cellometer cell counter with SYTO™ BC dye and propidium iodide. For measuring MICs against meropenem, bacteria were cultured on BYE plates including 5% sterilized rumen fluid (Fisher Scientific) with MIC test strips (Liofilchem™ MTS™ Meropenem [MRP] 0.016-256 μg/mL, Fisher Scientific). Bacterial growth experiments were performed in a bacterial liquid media, BYEM10, composed of a hybrid of BHI and M10 supplemented with yeast extract (Table 4). Bacteria were cultured up to 48 hours at a starting concentration of 1×10^6 bacteria/ml in BYEM10 broth (pH 7.2) with and without 5 mg/ml of porcine gastric mucin (M1778, Sigma-Aldrich) with or without 0.5 mg/ml of D-(+)-xylose (X3877), D-(+)-mannose (M8574, Sigma-Aldrich) or D-(+)-glucose (G8270). Optical densities (OD600 nm) of bacterial cultures were measured with a BioTek EPOCH 2 plate reader.

[4] = system: colonic mucus layer; assay: Colonic mucus thickness by PAS staining; format: in vivo, mice; details: meropenem-treated allogeneic mice (FIG. 6, FIG. 12 titles)
Text: as §1

[5] = Short chain fatty acids profiling of mouse feces by IC-MS; format: in vivo, mice; details: allogeneic mice, day 20
Experimental: To determine the relative abundance of short chain fatty acids in mouse feces samples, extracts were prepared and analyzed by ultra-high resolution mass spectrometry (HRMS). Fecal pellets were homogenized with a Precellys Tissue Homogenizer. Metabolites were extracted using 1 mL ice-cold 0.1% Ammonium hydroxide in 80/20 (v/v) methanol/water. Extracts were centrifuged at 17,000 g for 5 min at 4° C., and supernatants were transferred to clean tubes, followed by evaporation to dryness under nitrogen. Dried extracts were reconstituted in deionized water, and 5 μL was injected for analysis by IC-MS. IC mobile phase A (MPA; weak) was water, and mobile phase B (MPB; strong) was water containing 100 mM KOH. A Thermo Scientific Dionex ICS-5000+ system included a Thermo IonPac AS11 column (4 μm particle size, 250×2 mm) with column compartment kept at 30° C. The autosampler tray was chilled to 4° C. The mobile phase flow rate was 360 μL/min, and the gradient elution program was: 0-5 min, 1% MPB; 5-25 min, 1-35% MPB; 25-39 min, 35-99% MPB; 39-49 min, 99% MPB; 49-50, 99-1% MPB. The total run time was 50 min. To assist the desolvation for better sensitivity, methanol was delivered by an external pump and combined with the eluent via a low dead volume mixing tee. Data were acquired using a Thermo Orbitrap Fusion Tribrid Mass Spectrometer under ESI negative ionization mode at a resolution of 240,000. […]

[6] = system: intestinal microbiota; assay: 16S rRNA sequencing of fecal and mucosal microbiome in mice; format: in vivo
Experimental: Fecal samples which were collected from patients and mice and colonic mucosal samples, which were collected from mice were weighed before DNA isolation. […] The quality and quantity of the barcoded amplicons were assessed on an Agilent 4200 TapeStation system (Agilent) and Qubit Fluorometer (Thermo Fisher Scientific), and libraries were prepared after pooling at equimolar ratios. The final libraries were purified using QIAquick gel extraction kit (28706X4, Qiagen) and sequenced with a 2×250 base pair paired-end protocol on the Illumina MiSeq platform.
For differential abundance analysis, abundances of sequences belonging to taxonomical groups were included for analysis using the Mann-Whitney U test and adjusted for multiple comparisons using the method of Benjamini-Hochberg. Paired samples were analyzed using the Wilcoxon signed rank test with adjustment for multiple comparisons.

SMILES | severity of colonic GvHD [1] | expression of ORF GH2_PUL89_16 [2] | overall survival ([1]; 0.5% xylose days 13 to 28, meropenem-treated allogeneic mice) | growth of mouse- and human-derived BT [3] | mucolytic activity / mucus-degrading function of BT [4] | fecal levels of SCFAs [5] | abundances of BT ([6]; day 20, compared to meropenem-treated mice) | compositional differences between luminal and mucosal samples ([6]; treated allogeneic mice, PERMANOVA testing)
C[C@H]1COc2c(N3CCN(C)CC3)c(F)cc3c(=O)c(C(=O)O)cn1c23 [levofloxacin] | do not increase the severity of colonic GvHD |  |  |  |  |  |  | 
O=C[C@H](O)[C@@H](O)[C@H](O)CO [xylose, D-(+)-xylose] |  | significantly downregulated | significantly improved the survival | augmented | suppressed |  |  | 
CO/N=C(\C(=O)N[C@@H]1C(=O)N2C(C(=O)[O-])=C(C[N+]3(C)CCCC3)CS[C@H]12)c1csc(N)n1 [cefepime] | do not increase the severity of colonic GvHD |  |  |  |  | did not show substantially reduced fecal levels of SCFAs | significantly lower abundances of BT | loss of compositional differences
